The record followed here is the NIST ThermoML archive (doi:10.1021/acs.jced.8b00844).

± gives the expanded uncertainty stated by the source.

Data set [1] in a line: refractive index (Na D-line) (dimensionless). The following applies: 298.15 K; 101.33 kPa; Liquid; Standard Abbe refractometry.
The conditions of data set [2]: 298.15 K; 101.33 kPa; Liquid; Vibrating tube method.

For `CC(C)O` [propan-2-ol], the refractive index (commonly the speed of light in vacuum divided by its phase velocity in the sample) in data set [1] was 1.375 ± 0.012. Further, in data set [2], the mass density – broadly, mass per unit of volume – came out at 781.4 ± 16 kg/m3.
In the same order, the values of `CC(=O)OC(C)C` [1-methylethyl ethanoate] are 1.3701 ± 0.012 and 867.6 ± 16 kg/m3.
Regarding `O` [water], in data set [1], the refractive index turned out to be 1.3325 ± 0.012.
